The test system of assay [1] is Rattus norvegicus. As to the kind of experiment: Anti-inflammatory activity in Carrageenan-induced paw edema in Wistar albino rat assessed as inhibition of paw edema measured after 1 hr relative to control. In kind it is functional. Background: The carrageenan paw model is a standard test of acute inflammation.
In assay [2] the test system is Rattus norvegicus. The assay can be described thus: Anti-inflammatory activity in Carrageenan-induced paw edema in Wistar albino rat assessed as inhibition of paw edema measured after 2 hr relative to control. In kind it is functional.
For assay [3], the system named is Rattus norvegicus. The assay can be described thus: Anti-inflammatory activity in Carrageenan-induced paw edema in Wistar albino rat assessed as inhibition of paw edema measured after 3 hr relative to control. The class given is functional.
Assay [4] relates to Rattus norvegicus. The assay can be described thus: Anti-inflammatory activity against Carrageenan-induced paw edema in Wistar albino rat ulcerogenic activity assessed as reduction in severity index. In kind it is functional.
Assay [5] relates to RAW264.7. The assay can be described thus: Anti-inflammatory activity in mouse RAW264.7 cells assessed as inhibition of LPS-induced NO production. In kind it is functional, cell-based.
Assay [6] concerns RAW264.7. As to the kind of experiment: Anti-inflammatory activity in mouse RAW264.7 cells assessed as inhibition of LPS-induced TNFalpha production measured after 24 hrs by EIA method. The following applies: RAW264.7, 24 h. In kind it is functional, cell-based.
The subject of assay [7] is RAW264.7. The assay can be described thus: Anti-inflammatory activity in mouse RAW264.7 cells assessed as inhibition of LPS-induced IL-6 production measured after 24 hrs by EIA method. In kind it is functional, cell-based. The conditions noted are these: RAW264.7, 24 h.
Assay [8] concerns the target T1, Prostaglandin G/H synthase 2 (Homo sapiens, UniProt P35354).
T1 sequence (P35354 whole entry): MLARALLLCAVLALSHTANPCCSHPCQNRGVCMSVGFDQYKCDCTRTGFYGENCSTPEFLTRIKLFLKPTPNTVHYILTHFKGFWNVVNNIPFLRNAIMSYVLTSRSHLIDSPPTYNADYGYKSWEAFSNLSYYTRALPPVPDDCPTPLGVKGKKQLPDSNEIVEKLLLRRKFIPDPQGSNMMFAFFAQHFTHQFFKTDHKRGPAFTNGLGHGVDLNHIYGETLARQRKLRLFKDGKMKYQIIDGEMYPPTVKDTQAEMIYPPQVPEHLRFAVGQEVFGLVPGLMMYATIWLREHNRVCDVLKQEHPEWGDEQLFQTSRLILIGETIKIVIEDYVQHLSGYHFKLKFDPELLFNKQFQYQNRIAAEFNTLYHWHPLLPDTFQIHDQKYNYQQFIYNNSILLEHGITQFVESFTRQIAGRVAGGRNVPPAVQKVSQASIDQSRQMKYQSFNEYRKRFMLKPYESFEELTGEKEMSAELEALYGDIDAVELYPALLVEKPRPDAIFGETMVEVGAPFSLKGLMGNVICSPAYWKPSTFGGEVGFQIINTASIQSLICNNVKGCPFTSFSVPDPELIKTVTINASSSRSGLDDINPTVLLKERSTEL
As to the kind of experiment: Inhibition of COX-2 (unknown origin) at 0.1 uM.

The subject of assay [9] is Rattus norvegicus. As to the kind of experiment: Anti-inflammatory activity in Carrageenan-induced paw edema in Wistar albino rat assessed as inhibition of paw edema measured after 6 hr relative to control. The class given is functional.
Assay [10] relates to RAW264.7. The assay can be described thus: Anti-inflammatory activity in mouse RAW264.7 cells assessed as inhibition of LPS-induced NO production measured after 24 hrs. In kind it is functional, cell-based. The conditions noted are these: RAW264.7, 24 h.
The test system of assay [11] is RAW264.7. As to the kind of experiment: Anti-inflammatory activity in mouse RAW264.7 cells assessed as LPS-induced reduction in NO production measured after 24 hrs. In kind it is functional, cell-based. The following applies: RAW264.7, 24 h.
The nature of assay [12]: Anti-inflammatory activity assessed as protein denaturation using bovine serum albumin relative to control. In kind it is functional.
Assay [13] is described as follows: Antioxidant activity assessed as DPPH radical scavenging activity incubated for 20 mins relative to control. The class given is functional. (Loss of DPPH colour is used to gauge radical scavenging.)
Assay [14] can be described thus: Inhibition of MAPK p38 (unknown origin). Also on record: species or system Homo sapiens.
Assay [15] deals with Rattus norvegicus. The assay can be described thus: Anti-inflammatory activity in Carrageenan-induced rat paw edema in Wistar rat assessed as reduction in inhibition of edema measured after 4 hrs relative to control. In kind it is functional. Also on record: scale not given: the % may be the effect or the level left.
Assay [16] deals with Tumor necrosis factor (Homo sapiens) (UniProt P01375). As to the kind of experiment: Inhibition of TNF-alpha (unknown origin) relative to control. The conditions noted are these: concentration not given here.
Sequence of Tumor necrosis factor (Homo sapiens) (P01375 whole entry, looked up): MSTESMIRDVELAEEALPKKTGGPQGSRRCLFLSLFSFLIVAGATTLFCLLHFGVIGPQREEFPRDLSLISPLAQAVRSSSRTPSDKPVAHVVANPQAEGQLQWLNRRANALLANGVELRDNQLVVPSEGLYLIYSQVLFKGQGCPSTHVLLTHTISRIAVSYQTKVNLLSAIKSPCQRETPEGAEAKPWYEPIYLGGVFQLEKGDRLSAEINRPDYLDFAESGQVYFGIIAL
Assay [17] deals with Mus musculus. As to the kind of experiment: Anti-inflammatory activity against dimethylbenzene-induced auricular edema Kunming mouse model assessed as inhibition of ear edema at 50 mg/kg, po administered once daily relative to control. The class given is functional. Also on record: scale not given: the % may be the effect or the level left.
In assay [18] the test system is Mus musculus. As to the kind of experiment: Anti-inflammatory activity against dimethylbenzene-induced auricular edema Kunming mouse model assessed as inhibition of ear edema at 100 mg/kg, po administered once daily relative to control. Also on record: scale not given: the % may be the effect or the level left. The class given is functional.
Assay [19] can be described thus: Selectivity index, ratio of IC50 for ovine COX1 to IC50 for recombinant human COX2.
Assay [20] concerns Rattus norvegicus. As to the kind of experiment: Anti-inflammatory activity against formalin-induced foot paw edema in PO dosed rat at 10 mg/kg assessed as reduction in volume of edema measured after 5 hr relative to control. In kind it is functional. Also on record: scale not given: the % may be the effect or the level left.
Assay [21] relates to Rattus norvegicus. As to the kind of experiment: Anti-ulcerative activity in aspirin induced Wistar rat ulcer model assessed as inhibition of ulcer index at 20 mg/kg,po. In kind it is functional.

The structures appear in SMILES notation.

With `Cc1ccccc1-c1nnc(Cn2c(CN3CCOCC3)nc3ccccc32)o1`, the “inhibition (INH)” value was determined as 62.29% with Rattus norvegicus [1], 68.31% in the assay with Rattus norvegicus [2] and 31.25% with Rattus norvegicus [3]. Further, the Activity in the assay on Rattus norvegicus [4] is recorded as 0.32 mm.
As a reminder, the IC50 is the concentration needed to halve the response being measured. Take `CCCCc1nn(C)c2c(NCCCN3CCOCC3)nc(/C=C/c3cc(OC)c(OC)c(OC)c3)nc12`: the IC50 amounted to 5.63 µM with RAW264.7 [5], 4.38 µM in the assay with RAW264.7 [6] and 2.64 µM in the assay on RAW264.7 [7].
Turning to `CC(=O)N(CN1C(=O)/C(=C\c2nnc(-c3ccc(-c4ccncc4)cc3)s2)c2ccccc21)C1C(c2ccc(O)cc2)=NNC1S` (centres undefined), the “inhibition (INH)” value was found to be 20% in the assay on Rattus norvegicus [1], 10.53% in the assay on Rattus norvegicus [2] and 57.14% in the assay on Rattus norvegicus [9]. Also, in [8], the IC50 was 71.1 µM.
As to `COc1cc(-c2cc3ccccc3nc2C(=O)c2ccc(F)cc2)cc(OC)c1OC`, the IC50 in the assay on RAW264.7 [10] was found to be 15.4 µM; in the assay with RAW264.7 [11], 7.41 µM.
What is called inhibition is the drop in the measured response relative to a control, in per cent. On to `O=C(Nc1ccc(Cl)cc1)c1ccc(Nc2ncnc3c2cnn3-c2ccccc2)cc1`, for which the values for the Activity (in assay [12]; in assay [13]; in the assay with Rattus norvegicus [15]) were 82.3%, 74.9% and 83.73%, respectively. The molecule also displayed an IC50 in assay [14] of 1.63 µM. Also, the inhibition in assay [16] was found to be 62.3%.
Regarding `c1ccc([Se]CC2CC(c3ccccc3)=NO2)cc1` (centres undefined), the Activity is given as 51% in the assay with Mus musculus [17] and 74% in the assay with Mus musculus [18].
With `CS(=O)(=O)c1ccc(-n2cc(/C=C3\NC(=S)N(c4ccccc4)C3=O)c(-c3ccccc3)n2)cc1`, the Selectivity Index in assay [19] is 9.15. Also, the Activity in the assay with Rattus norvegicus [20] was found to be 56%. Moreover, the UI in the assay with Rattus norvegicus [21] stood at 3.87.
Turning to `COc1ccc(C(=O)c2nc3ccccc3cc2-c2cc(OC)c(OC)c(OC)c2)cc1`, the IC50 with RAW264.7 [11] was determined as 6.7 µM.

The values are drawn from ChEMBL document CHEMBL5233249, “Recent advancements in the development of heterocyclic anti-inflammatory agents” (Eur J Med Chem, 2020).
